The nature of series [1]: Calf physiological parameters (bodyweight, average daily gain). It counts as in vivo, calves (Holstein, Montbéliarde, Holstein×Montbéliarde). As to conditions: for effect on host animal performance (in words): early life treatment, birth to week 14. On the procedure: (§1) At birth 18 female Holstein (n=12), Montbéliarde (n=4) and Holstein×Montbéliarde (n=2) calves were randomly assigned to either a treatment group (3 mg 3-NOP (active)/kg BW) or control group (placebo supplement i.e. without 3-NOP but with silica and propylene glycol). 3-NOP was supplemented in the form of a 3-NOP powdered formulation (10 wt.-% of 3-NOP admixed with silica and propylene glycol) such that breed distribution and birthweight were balanced across groups. Treatment was administered daily from birth until three weeks post-weaning (week 14) (admixed in a small volume of water and delivered by an oral gavage). Calves were weighed weekly. Milk and concentrate intake prior to weaning was recorded using automated feeders. Animals were group housed in a single pen following weaning. Samples of rumen liquid were collected at week 1, 4, 11, 14, 23 and 60 weeks of life and DNA from these samples of rumen liquid content were extracted and subjected to Illumina MiSeq sequencing. Methane emissions from the calves were measured using the GreenFeed system (C-Lock, Rapid City, SD USA) from weaning at week 11 to week 23 and later from week 56 to 60 of life.

For series [2], the system named is calves. Kind of series: Methane emissions from calves measured using the GreenFeed system after early-life supplementation. It counts as in vivo, calves (Holstein, Montbéliarde, Holstein×Montbéliarde). The following applies: for methane emissions: n = 10.
Excerpt: The methane emissions respectively methane reductions as referred to herein can be measured in individual animals in metabolic chambers by methods known in the art (Grainger et al., 2007 J. Dairy Science; 90: 2755-2766). Moreover, it can also be assessed at barn level by an emerging technology using laser beam (McGinn et al., 2009, Journal of Environ-mental Quality; 38: 1796-1802). Alternatively, methane produced by a ruminant can also be assessed with the GreenFeed system (C-Lock, Rapid City, SD USA), which method is preferred.
as §1

This is an account of results in patent US12193456B2, “Early life nutrition” (DSM IP ASSETS B.V., priority 2019, dated 2025).

Turning to `O=[N+]([O-])OCCCO` [3-nitrooxypropanol, 3-Nitrooxypropanol], the “Bodyweight (BW) of calves” value in series [1] (age 0 weeks, treatment group n = 10) amounted to 41.6 kg; in series [1] (age 11 weeks, treatment group n = 10), 102.2 kg; in series [1] (age 14 weeks, treatment group n = 10), 119.5 kg; in series [1] (age 17 weeks, treatment group n = 10), 134.9 kg; in series [1] (age 20 weeks, treatment group n = 10) it was 151.8 kg; in series [1] (age 23 weeks, treatment group n = 10) it was 189.5 kg. For the same compound, in series [1] (age 56 to 60 weeks, treatment group n = 10), the “Bodyweight (BW) of calves” value is on record as 339 kg. For the same compound, the entries for the “effect on host animal performance (in words)” value in series [1] and in series [1] (listed as 3-NOP) were “no detrimental effects” and “no adverse effect on performance”, respectively. For the same compound, in series [1] (from week 0 to 23 weeks of life, treatment group n = 10), the “Average Daily Gain (ADG)” value stood at 0.79 kg/day. Further, the “methane emissions of treated animals (in words)” value in series [2] (after 60 weeks of age, supplementation from birth until 14 weeks of age) is listed as “lower methane emissions”. In addition, the methane emissions in series [2] (age 11 weeks (weaning), during daily supplementation, 3 mg 3-NOP/kg BW oral gavage from birth) worked out at 45.0 g/day; in series [2] (age 14 weeks, end of daily supplementation, 3 mg 3-NOP/kg BW oral gavage from birth), 63.4 g/day; in series [2] (age 17 weeks, no supplementation (stopped week 14)), 68.2 g/day; in series [2] (age 20 weeks, no supplementation (stopped week 14)), 88.9 g/day; in series [2] (age 23 weeks, no supplementation (stopped week 14)) it was 97.13 g/day; in series [2] (age 56 to 60 weeks, no supplementation (stopped week 14)) it was 193.0 g/day. Further, the “overall reduction in methane emissions (g CH4/d)” value in series [2] (throughout the post-weaning period (week 11 to 23), vs control, P=0.03, treatment ceased three weeks post-weaning) amounted to 11.6%. For the same compound, the “overall reduction in methane emissions” value in series [2] (weeks 56 to 60 of life, vs control, P<0.05, no supplementation since week 14) is reported as “about 19%”.
